{
  "source": "patent US20240139149A1",
  "about": "“THERAPEUTIC USES OF UROLITHIN DERIVATIVES” (Vandria SA, priority 2022, published 2024)",
  "key": {"[1]": {"system": "APTK-OVA tumors", "test": "Adoptive transfer of UA-conditioned OT-1 T cells into Rag1−/− mice", "format": "in vivo, mouse", "experimental": "For adoptive cell transfer, purified splenic T cell from OT1 mice were isolated and activated using αCD3/αCD28 stimulation beads for 48 h. After magnetic bead removal, 1×10^6 T of activated T cell were intravenously injected into Rag1−/− recipients. To study survival of transferred T cells, stimulated OT-1 T cells were injected into mice without tumors. Subsequently, after 7 days, spleens were isolated and splenocytes were stained for the CD8+ subsets as described below. To understand antitumor immunity conferred by transferred OT-1 lymphocytes, cells were injected into mice carrying APTK-OVA tumors 10 days after subcutaneous organoid transplantation. Tumor growth was assessed as described above. Mice were kept under regular chow food for the T cell adoptive transfer experiment and sacrificed collectively when maximum tumor diameter extended 1.5 cm.\nTumors were minced and digested with Tumor & Tissue Dissociation Reagent (BD Horizon) for 30 min. The remaining organ pieces were filtered through a 70 µm cell strainer. Cells were then washed with PBS 1% BSA and 2 mM EDTA. Immune cells were enriched on a 30%/40%/75% Percoll gradient after a 1700 rpm 17 min centrifugation. Then, tumor immune filtrates or activated T cells were stained with Fixable Viability Dye-eF780 (65-0865-14; eBioscience), αCD45-FITC (30-F11; 11-0451-85; eBioscience), αCD11b-BV650 (M1/70; 56340; BD) α-CD11c-BV785 (HL3; 563735; BD), aLy6G-BV605 (53-6.7; 563005; BD), aLy6C-AF700 (HK1.4; 128024; Biolegend), aF4/80-PE (BM8; 12-4801-82, eBioscience), aPD-L1-PECy7 (MIH5; 25-5982-80, eBioscience); or with Fixable Viability Dye-eF780 (ebioscience), αCD45-BV786 (30-F11; 564225; BD), αCD4-BUV496 (GK1.5; 564667; BD), αCD8-BV605 (100744; Biolegend), aPD1-APC (J43; 17-9985-82; eBioscience), aTIM-3-PECy7 (RMT3-23; 119715; Biolegend), aCTLA4-PE (UC10-4B9; 106305; Biolegend) and aLag3-BV421 (C9B7W; 125221, Biolegend); or with Fixable Viability Dye-eF780 (eBioscience), αCD4-FITC (H129.19; 553650; BD), αCD8-APC (53-6.7; 17-0081-83; eBioscience), αCD44-AF400 (IM7; 103026; Biolegend), αCD62L-BV785 (MEL-14; 104440; Biolegend), αSca-1-PerCP-Cy5.5 (D7; 45-5981-82; eBioscience), αCD95-PE (Jo2; 554258; BD); or with Fixable Viability Dye-eF780 (eBioscience), αCD8-BV650 (53-6.7; 563234; BD), αCD4-BUV496 (GK1.5; 564667; BD), αCD127-APC (A7R34; 17-1271-82; eBioscience), αCD95-FITC (SA367H8;152605; Biolegend), αCD44-AF400 (IM7; 103026; Biolegend), αCD62L-BV785 (MEL-14; 104440; Biolegend), αSca-1-PerCP-Cy5.5 (D7; 45-5981-82; eBioscience) followed by intracellular staining of aTCF1-PE (S33-966; 564217; BD), or PGC-1α (sc-518025; D-5; santa cruz), or aCyclinD1 (MA5-28534, DCS-6; Invitrogen) with transcription factor buffer set kit (BD Biosciences). To study cytokine expression, tumor immune infiltrates were stimulated ex vivo with 20 ng/mL PMA and […] Ionomycin (Sigma) for 3 h in T cell activation medium with Brefeldin A (Biolegend). For T cell in vitro activation experiments over several days, Brefeldin A was added to the medium for the last 3 hours. Cells were then stained with Fixable Viability Dye-eF780 (eBioscience), αCD8-PeCy7 (53.6-7; 100722; Biolegend), αCD4-AF700 (GK1.5; 100429; Biolegend), and intracellular staining for cytokine assessment was performed with BD Cytofix/Cytoperm (BD) with 20 min fixation and overnight incubation with αGranzyme B-FITC (GB11; 515403; Biolegend), αIFNγ-PerCPCy5.5 (XMG1.2; 45-7311-82; eBioscience) and αTNFa-BV711 (MP6-XT22; 563944; BD). For flow cytometric analysis of mitochondria and lysosomes 500 μl of Mitotracker Red (200 nM; ThermoFisher) or Lysotracker Red DND-99 (75 nM; ThermoFisher) were applied followed by surface staining. To study changes in mitochondrial membrane potential, Mitoprobe TMRM kit (ThermoFisher) was used according to the manufacturer's instructions. Cell proliferation was assessed by CellTrace Violet (Invitrogen, C34557) at a concentration of […] according to manufacturer's instructions. […]"}, "[2]": {"system": "mouse T lymphocytes", "test": "Proportion of mouse T memory stem cells (Tscm)", "format": "cell-based", "settings": "2 μM, 72 h", "experimental": "T cells were isolated and stimulated as described in Example 14.\nTscm represent a subset of minimally differentiated T cells, which share a CD44^loCD62L^hi phenotype with naïve T cells, but are phenotypically distinct by expressing high levels of Sca1 (Gattinoni et al., 2009). Tscm are therefore identified as CD44^−CD62L^+Sca1^hi cells.\nFlow cytometry and analysis was performed as described in Example 14."}},
  "data": [
    {"smiles": "O=c1oc2cc(O)ccc2c2ccc(O)cc12", "note": "[UA, Urolithin A]", "values": [
      {"measurement": "CD62L expression in CD8+ TIL", "setting": "[1]; UA-T cell transfer", "result": "remained unchanged"},
      {"measurement": "expression of CD44 in CD8+ TIL", "setting": "[1]; UA-T cell transfer", "result": "lower expression"},
      {"measurement": "number of TCF1HiCD8+ tumor infiltrating T cells", "setting": "[1]; UA-T cell transfer", "result": "higher number"},
      {"measurement": "suppression of APTK-OVA tumors", "setting": "[1]; UA-conditioned vs control OT-I T cells", "result": "more substantial tumor suppression"},
      {"measurement": "Tim3HiPD1Hi terminally exhausted CD8+ T cells in the TME", "setting": "[1]; UA-pretreated T cells", "result": "less"}
    ]},
    {"smiles": "O=c1oc2cc(O)ccc2c2ccc(OC3CCOCC3)cc12", "note": "[compound 33, 3-hydroxy-8-((tetrahydro-2H-pyran-4-yl)oxy)-6H-benzo[c]chromen-6-one]", "values": [
      {"measurement": "increase in the percentage of Tscm in CD8+ cells vs DMSO", "setting": "[2]", "result": 81, "unit": "%"},
      {"measurement": "percentage of Tscm in CD8+ cells", "setting": "[2]; DMSO 16.7%", "result": 30.2, "unit": "%"}
    ]}
  ]
}
